Test results: US20070244179A1, “Dihydro[1,4]dioxino[2,3-e]indazole derivatives as 5-hydroxytryptamine-6 ligands” (Wyeth, priority 2006, published 2007)
Counter-ions that a name gives are not always drawn.

Target: human cloned 5-HT6 receptors (Homo sapiens, UniProt P50406)
Assay: Evaluation of 5-HT6 binding affinity ([3H]-LSD displacement, membranes of Hela cells)
Conditions: not given

Sequence of human cloned 5-HT6 receptors (P50406 whole entry): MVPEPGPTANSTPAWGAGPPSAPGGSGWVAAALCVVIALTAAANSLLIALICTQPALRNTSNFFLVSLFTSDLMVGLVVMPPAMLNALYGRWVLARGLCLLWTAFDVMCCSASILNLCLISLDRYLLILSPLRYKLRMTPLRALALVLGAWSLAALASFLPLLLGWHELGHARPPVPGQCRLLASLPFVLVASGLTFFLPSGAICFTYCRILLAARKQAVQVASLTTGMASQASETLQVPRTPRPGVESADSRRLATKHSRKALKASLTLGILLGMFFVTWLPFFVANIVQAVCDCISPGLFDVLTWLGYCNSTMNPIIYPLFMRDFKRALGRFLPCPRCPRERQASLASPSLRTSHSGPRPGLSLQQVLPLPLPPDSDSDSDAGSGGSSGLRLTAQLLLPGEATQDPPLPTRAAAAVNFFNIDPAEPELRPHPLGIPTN

| Ki | SMILES |
| --- | --- |
| 42 nM | CCN(CC)C[C@@H]1COc2ccc3[nH]nc(S(=O)(=O)c4cccc5ccccc45)c3c2O1 [Example 14, N-ethyl-N-{[(2R)-9-(1-naphthylsulfonyl)-2,3-dihydro-7H-[1,4]dioxino[2,3-e]indazol-2yl]-methyl}ethanamine] |
| 13.5 nM | CCN(CC)C[C@H]1COc2ccc3[nH]nc(S(=O)(=O)c4cccc5ccccc45)c3c2O1 [Example 9, N-ethyl-N-{[(2S)-9-(1-naphthylsulfonyl)-2,3-dihydro-7H-[1,4]dioxino[2,3-e]indazol-2-yl]methyl}ethanamine] |
| 79 nM | O=S(=O)(c1cccc2ccccc12)c1n[nH]c2ccc3c(c12)O[C@@H](CN1CCCCC1)CO3 [Example 11, (2S)-9-(1-naphthylsulfonyl)-2-(piperidin-1-ylmethyl)-2,3-dihydro-7H-[1,4]dioxino-[2,3-e]indazole] |
| 31 nM | CN(C)C[C@@H]1COc2ccc3[nH]nc(S(=O)(=O)c4cccc5ccccc45)c3c2O1 [Example 13, N,N-dimethyl-1-[(2R)-9-(1-naphthylsulfonyl)-2,3-dihydro-7H-[1,4]dioxino[2,3-e]-indazol-2-yl]methanamine] |
| 32.5 nM | CCNC[C@@H]1COc2ccc3[nH]nc(S(=O)(=O)c4cccc5ccccc45)c3c2O1 [Example 15, N-{[(2R)-9-(1-naphthylsulfonyl)-2,3-dihydro-7H-[1,4]dioxino[2,3-e]indazol-2yl]methyl}-ethanamine] |
| 61.5 nM | CN(C)C[C@H]1COc2ccc3[nH]nc(S(=O)(=O)c4cccc5ccccc45)c3c2O1 [Example 8, N,N-dimethyl-1-[(2S)-9-(1-naphthylsulfonyl)-2,3-dihydro-7H-[1,4]dioxino[2,3-e]-indazol-2-yl]methanamine] |
| 36.5 nM | O=S(=O)(c1cccc2ccccc12)c1n[nH]c2ccc3c(c12)O[C@H](CN1CCCCC1)CO3 [Example 17, (2R)-9-(1-naphthylsulfonyl)-2-(piperidin-1-ylmeyhyl)-2,3-dihydro-7H [1,4]dioxino-[2,3-e]indazole] |
| 44.5 nM | CNC[C@H]1COc2ccc3[nH]nc(S(=O)(=O)c4cccc5ccccc45)c3c2O1 [Example 6, N-Methyl-1-[(2S)-9-(1-naphthylsulfonyl)-2,3-dihydro-7H-[1,4]dioxino [2,3-e]indazol-2-yl]methanamine Hydrochloride] |
| 54.5 nM | CNC[C@@H]1COc2ccc3[nH]nc(S(=O)(=O)c4cccc5ccccc45)c3c2O1 [Example 12, N-methyl-1-[(2R)-9-(1-naphthylsulfonyl)-2,3-dihydro-7H-[1,4]dioxino[2,3-e]indazol-2-yl]methanamine] |
| 84 nM | CCNC[C@H]1COc2ccc3[nH]nc(S(=O)(=O)c4cccc5ccccc45)c3c2O1 [Example 7, N-{[(2S)-9-(1-naphthylsulfonyl)-2,3-dihydro-7H-[1,4]dioxino[2,3-e]indazol-2-yl]-methyl}ethanamine] |
| 31 nM | O=S(=O)(c1cccc2ccccc12)c1n[nH]c2ccc3c(c12)O[C@@H](CN1CCCC1)CO3 [Example 10, (2S)-9-(1-naphthylsulfonyl)-2-(pyrrolidin-1-ylmethyl)-2,3-dihydro-7H-[1,4]dioxino-[2,3-e]indazole] |
| 39.5 nM | O=S(=O)(c1cccc2ccccc12)c1n[nH]c2ccc3c(c12)O[C@H](CN1CCCC1)CO3 [Example 16, (2R)-9-(1-naphthylsulfonyl)-2-(pyrrolidin-1-ylmeyhyl)-2,3-dihydro-7H-[1,4]dioxino-[2,3-e]indazole] |

Same assay, conditions: read-out: 5-HT6 Binding Ki; [3H]-LSD 3.0 nM, Hela cell membranes expressing human cloned 5-HT6 receptors, 120 minutes at room temperature

| SMILES | Ki |
| --- | --- |
| CCCCNC[C@@H]1COc2ccc3[nH]nc(S(=O)(=O)c4cccc5ccccc45)c3c2O1 [Example 18] | 30 nM |

Test system: not given
Assay: not given
Conditions: not given

| melting point | SMILES |
| --- | --- |
| 182.6 to 184.3 °C | O=S(=O)(c1cccc2ccccc12)c1n[nH]c2ccc3c(c12)O[C@@H](CN1CCCC1)CO3 (as salt: hydrochloride) [Example 10, (2S)-9-(1-naphthylsulfonyl)-2-(pyrrolidin-1-ylmethyl)-2,3-dihydro-7H-[1,4]dioxino-[2,3-e]indazole] |
| 163.9 to 165.2 °C | O=S(=O)(c1cccc2ccccc12)c1n[nH]c2ccc3c(c12)O[C@@H](CN1CCCCC1)CO3 (as salt: hydrochloride) [Example 11, (2S)-9-(1-naphthylsulfonyl)-2-(piperidin-1-ylmethyl)-2,3-dihydro-7H-[1,4]dioxino-[2,3-e]indazole] |
| 187 to 189 °C | O=S(=O)(c1cccc2ccccc12)c1n[nH]c2ccc3c(c12)O[C@H](CN1CCCCC1)CO3 (as salt: hydrochloride) [Example 17, (2R)-9-(1-naphthylsulfonyl)-2-(piperidin-1-ylmeyhyl)-2,3-dihydro-7H [1,4]dioxino-[2,3-e]indazole] |
| 178.1 to 181.3 °C | CN(C)C[C@H]1COc2ccc3[nH]nc(S(=O)(=O)c4cccc5ccccc45)c3c2O1 (as salt: hydrochloride) [Example 8, N,N-dimethyl-1-[(2S)-9-(1-naphthylsulfonyl)-2,3-dihydro-7H-[1,4]dioxino[2,3-e]-indazol-2-yl]methanamine] |
| > 200 °C | CNC[C@@H]1COc2ccc3[nH]nc(S(=O)(=O)c4cccc5ccccc45)c3c2O1 (as salt: hydrochloride) [Example 12, N-methyl-1-[(2R)-9-(1-naphthylsulfonyl)-2,3-dihydro-7H-[1,4]dioxino[2,3-e]indazol-2-yl]methanamine] |
| > 200 °C | CN(C)C[C@@H]1COc2ccc3[nH]nc(S(=O)(=O)c4cccc5ccccc45)c3c2O1 (as salt: hydrochloride) [Example 13, N,N-dimethyl-1-[(2R)-9-(1-naphthylsulfonyl)-2,3-dihydro-7H-[1,4]dioxino[2,3-e]-indazol-2-yl]methanamine] |
| 181.3 to 183.3 °C | CNC[C@H]1COc2ccc3[nH]nc(S(=O)(=O)c4cccc5ccccc45)c3c2O1 (as salt: hydrochloride) [Example 6, N-Methyl-1-[(2S)-9-(1-naphthylsulfonyl)-2,3-dihydro-7H-[1,4]dioxino [2,3-e]indazol-2-yl]methanamine Hydrochloride] |
| 182 to 184 °C | CCNC[C@@H]1COc2ccc3[nH]nc(S(=O)(=O)c4cccc5ccccc45)c3c2O1 (as salt: hydrochloride) [Example 15, N-{[(2R)-9-(1-naphthylsulfonyl)-2,3-dihydro-7H-[1,4]dioxino[2,3-e]indazol-2yl]methyl}-ethanamine] |
| 178.9 to 180.1 °C | CCNC[C@H]1COc2ccc3[nH]nc(S(=O)(=O)c4cccc5ccccc45)c3c2O1 (as salt: hydrochloride) [Example 7, N-{[(2S)-9-(1-naphthylsulfonyl)-2,3-dihydro-7H-[1,4]dioxino[2,3-e]indazol-2-yl]-methyl}ethanamine] |
| > 200 °C | CCN(CC)C[C@@H]1COc2ccc3[nH]nc(S(=O)(=O)c4cccc5ccccc45)c3c2O1 (as salt: hydrochloride) [Example 14, N-ethyl-N-{[(2R)-9-(1-naphthylsulfonyl)-2,3-dihydro-7H-[1,4]dioxino[2,3-e]indazol-2yl]-methyl}ethanamine] |
| 184 to 186 °C | O=S(=O)(c1cccc2ccccc12)c1n[nH]c2ccc3c(c12)O[C@H](CN1CCCC1)CO3 (as salt: hydrochloride) [Example 16, (2R)-9-(1-naphthylsulfonyl)-2-(pyrrolidin-1-ylmeyhyl)-2,3-dihydro-7H-[1,4]dioxino-[2,3-e]indazole] |
| 175.6 to 177.2 °C | CCN(CC)C[C@H]1COc2ccc3[nH]nc(S(=O)(=O)c4cccc5ccccc45)c3c2O1 (as salt: hydrochloride) [Example 9, N-ethyl-N-{[(2S)-9-(1-naphthylsulfonyl)-2,3-dihydro-7H-[1,4]dioxino[2,3-e]indazol-2-yl]methyl}ethanamine] |
